We go through 45 compounds from US20230357233A1, “HETEROARYL COMPOUNDS, PREPARATION METHODS AND USES THEREOF” (INVENTISBIO CO., LTD., priority 2020, published 2023).

A word on the Kd: it is the free concentration of one partner at which half of the binding sites on the other are occupied at equilibrium, for simple one-to-one binding.

Molecules are shown by their SMILES. Some results are limits rather than exact numbers.

One test concerns the target Ba/F3_KRAS^G12D cells (Homo sapiens, UniProt P01116, G12D, cells depend on it). The experiment in a line: Ba/F3 KRAS^G12D cell proliferation assay (cell-titer Glo). Format: cell-based. The settings on record: cell growth inhibition, treated with the compounds for 3 days, read-out: BaF3_KRAS^G12D IC50. The method, then: Cells were seeded at a density of 5×10^3 per well into 96-well plate and incubated overnight. Serial diluted compounds were added to each well. Cells were treated with the compounds for 3 days, after which cell-titer Glo reagent (Promega #G7572) was used to assess cell proliferation. The luminescence signal was then collected on Tecan Spark plate reader. […] Cell growth inhibition of IC50 is calculated with the equation of Y=Bottom+(Top−Bottom)/(1+10^((LogIC50−X)*HillSlope))

Test [1] concerns the target recombinant human KRAS^G12D protein (Homo sapiens, UniProt P01116, G12D). The experiment in a line: Temperature-dependent Fluorescence (TdF) KRAS^G12D protein binding assay. The note with it: 6 μM KRAS^G12D Protein, 10 μM compound, Sypro Orange; Kd calculated from fluorescent shift. The protocol: The TdF assay was conducted in the 96-well-based real-time fluorescence plate reader (ABI 7500 or Roche LightCycler 480). Fluorescent dye Sypro Orange (Sigma) was used to monitor the protein folding-unfolding transition. Protein-compound binding was gauged by the shift in the unfolding transition temperature (ΔTm) acquired with and without compound. […] The sample plate was heated from 30° C. to 95° C. with a thermal ramping rate of […], taking a fluorescence reading every 0.4° C. using a CY3 channel matching the excitation and emission wavelengths of Sypro Orange (λ ex 470 nm; λ em 570 nm). Binding affinity (Kd value) was calculated based on the degree of fluorescent shift of the protein with and without compound.

Sequence of Ba/F3_KRAS^G12D cells (P01116 whole entry G12D): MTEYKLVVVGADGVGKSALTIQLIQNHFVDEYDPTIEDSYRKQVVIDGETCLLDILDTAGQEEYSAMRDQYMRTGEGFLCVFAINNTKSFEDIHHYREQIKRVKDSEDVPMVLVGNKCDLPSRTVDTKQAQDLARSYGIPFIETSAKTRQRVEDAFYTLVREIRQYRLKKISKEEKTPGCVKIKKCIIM
Sequence of recombinant human KRAS^G12D protein (P01116 1-188 isoform P01116-2 G12D): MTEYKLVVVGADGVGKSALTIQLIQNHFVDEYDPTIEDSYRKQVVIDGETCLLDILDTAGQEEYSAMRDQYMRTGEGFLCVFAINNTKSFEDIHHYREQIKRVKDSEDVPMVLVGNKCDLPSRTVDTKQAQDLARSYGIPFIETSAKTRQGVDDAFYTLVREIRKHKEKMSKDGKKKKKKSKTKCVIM

`Clc1cc2c(N3CCNCC3)nc(OCC34CCCN3CCC4)nc2nc1-c1cccc2ccccc12` [Compound 3]: the GI50 at Ba/F3_KRAS^G12D cells was greater than 5000 nM. Moreover, the dissociation constant Kd in test [1] was greater than 5000 nM. On to `CCc1cccc2cc(O)cc(-c3nc(C)c4c(N5CC6CCC(C5)N6)nc(OC[C@@]56CCCN5C[C@H](F)C6)nc4c3C)c12` [Compound 117], for which the GI50 on Ba/F3_KRAS^G12D cells is less than 500 nM. In test [1], the Kd is no more than 500 nM.

`C#Cc1c(F)ccc2cc(O)cc(-c3cc4nc(OC[C@@]56CCCN5C[C@H](F)C6)nc(N5CC6CCC(C5)N6)c4c(C)n3)c12` [Compound 131]: at Ba/F3_KRAS^G12D cells, the GI50 was less than 500 nM. Further, in test [1], the Kd is no more than 500 nM. Take `CN(C)CCCOc1cc2nc(-c3cccc4ccccc34)ncc2c(N2CC3CCC(C2)N3)n1` [Compound 23]: the GI50 on Ba/F3_KRAS^G12D cells fell in the range of 500 to 5000 nM. In addition, in test [1], the Kd is greater than 5000 nM. In the same order, the values of `c1ccc2c(-c3ncc4c(N5CC6CCC(C5)N6)cc(OCC56CCCN5CCC6)nc4n3)cccc2c1` [Compound 66] are 500 to 5000 nM and greater than 5000 nM. In the same order, the values of `Nc1nc2c(-c3ncc4c(N5CC6CCC(C5)N6)nc(OC[C@@]56CCCN5C[C@H](F)C6)nc4c3F)ccc(F)c2s1` [Compound 68] are greater than 5000 nM and no more than 500 nM.

For the compound `CN1CCC[C@H]1Cn1c(=O)nc(N2CCN[C@@H](CC#N)C2)c2cnc(-c3cc(O)cc4cccc(Cl)c34)c(F)c21` [Compound 64], the GI50 on Ba/F3_KRAS^G12D cells is greater than 5000 nM. For the same compound, the Kd in test [1] was greater than 5000 nM. Consider `CN(C)CCCOc1nc(N2CC3CCC(C2)N3)c2cc(Cl)c(-c3cccc4ccccc34)nc2n1` [Compound 4], for which, at Ba/F3_KRAS^G12D cells, the GI50 was greater than 5000 nM. For the same compound, the Kd in test [1] is greater than 5000 nM. For `Oc1cc(-c2nc(OCC34CCCN3CCC4)c3ccc(N4CCNCC4)nc3c2F)c2c(Cl)cccc2c1` [Compound 57], the GI50 on Ba/F3_KRAS^G12D cells was greater than 5000 nM. Besides, in test [1], the Kd was greater than 5000 nM.

For `Oc1cc(-c2cc3nc(OC[C@@]45CCCN4C[C@H](F)C5)nc(N4CC5CCC(C4)N5)c3nn2)c2ccccc2c1` [Compound 84], the GI50 on Ba/F3_KRAS^G12D cells is 500 to 5000 nM. For the same compound, the Kd in test [1] is 500 to 5000 nM.

With `Oc1cc(-c2ncc3c(N4C5CCC4CNC5)nc(OC[C@@]45CCCN4C[C@H](F)C5)nc3c2F)c2c(Cl)cccc2c1` [Compound 70], the GI50 at Ba/F3_KRAS^G12D cells was less than 500 nM. Also, the Kd in test [1] was no more than 500 nM. In the same order, the values of `Cc1nc(-c2ccc(F)c3sc(N)nc23)c(F)c2nc(OC[C@@]34CCCN3C[C@H](F)C4)nc(N3CC4CCC(C3)N4)c12` [Compound 87] are greater than 5000 nM and 500 to 5000 nM. Taken in the same sequence, the figures for `Fc1cc2c(N3CC4CCC(C3)N4)nc(OCC34CCCN3CCC4)nc2nc1-c1cccc2cccc(Cl)c12` [Compound 7] were greater than 5000 nM and greater than 5000 nM. Taken in the same sequence, the figures for `Cc1cc(N)nc(-c2nc(C)c3c(N4CC5CCC(C4)N5)nc(OC[C@@]45CCCN4C[C@H](F)C5)nc3c2F)c1C1CC1` [Compound 102] were greater than 5000 nM and greater than 5000 nM. Turning to `O=c1cc2c(N3CC4CCC(C3)N4)nc(OCC34CCCN3CCC4)nc2cn1-c1cc(O)cc2ccccc12` [Compound 109], the GI50 on Ba/F3_KRAS^G12D cells was greater than 5000 nM. For the same compound, the Kd in test [1] was greater than 5000 nM. `Cc1nc(-c2cc(O)cc3ccc(F)c(Cl)c23)c(F)c2nc(OC[C@@]34CCCN3C[C@H](F)C4)nc(N3CC4CCC(C3)N4)c12` [Compound 126]: the GI50 on Ba/F3_KRAS^G12D cells was less than 500 nM. In addition, the Kd in test [1] was no more than 500 nM.

Consider `c1ccc2c(-c3ncc4c(N5CCNCC5)nc(OCC56CCCN5CCC6)cc4n3)cccc2c1` [Compound 18], for which, on Ba/F3_KRAS^G12D cells, the GI50 lay in the range of 500 to 5000 nM. The Kd in test [1] is greater than 5000 nM. In the same order, the values of `Cc1nc(-c2cc(C(F)F)cc3cccc(Cl)c23)c(F)c2nc(OC[C@@]34CCCN3C[C@H](F)C4)nc(N3CC4CCC(C3)N4)c12` [Compound 116] are 500 to 5000 nM and greater than 5000 nM. In the same order, the values of `CCOc1nc(-c2cc(O)cc3ccc(F)c(Cl)c23)c(F)c2nc(OC[C@@]34CCCN3C[C@H](F)C4)nc(N3CC4CCC(C3)N4)c12` [Compound 173] are less than 500 nM and no more than 500 nM. Take `CN1CCC[C@H]1COc1nc(N2CCNCC2)c2cnc(-c3ccc(F)c4sc(N)nc34)c(F)c2n1` [Compound 73]: the GI50 at Ba/F3_KRAS^G12D cells was greater than 5000 nM. For the same compound, in test [1], the Kd was no more than 500 nM. With `CN1CCC[C@H]1Cn1c(=O)nc(N2CC3CCC(C2)N3)c2cnc(-c3cc(O)cc4ccccc34)c(F)c21` [Compound 40], on Ba/F3_KRAS^G12D cells, the GI50 was greater than 5000 nM. Also, the Kd in test [1] was greater than 5000 nM. For the compound `Oc1cc(-c2ncc3c(N4CC5CCC(C4)N5)nc(OCC45CCCN4CCC5)c(Cl)c3n2)c2c(Cl)cccc2c1` [Compound 65], the GI50 on Ba/F3_KRAS^G12D cells is greater than 5000 nM. Besides, the Kd in test [1] is 500 to 5000 nM. As to `Cc1cccc2cc(O)cc(-c3ncc4c(N5CC6CCC(C5)N6)nc(OC[C@@]56CCCN5C[C@H](F)C6)c(Cl)c4n3)c12` [Compound 58], on Ba/F3_KRAS^G12D cells, the GI50 fell in the range of 500 to 5000 nM. Also, the Kd in test [1] was 500 to 5000 nM. As for `Clc1cccc2cccc(-c3cc4nc(N5CCNCC5)ccc4c(OCC45CCCN4CCC5)n3)c12` [Compound 82], the GI50 on Ba/F3_KRAS^G12D cells was less than 500 nM. Moreover, the Kd in test [1] is greater than 5000 nM. Taken in the same sequence, the figures for `C#Cc1c(F)ccc2cc(O)cc(-c3nc(C(F)F)c4c(N5CC6CCC(C5)N6)nc(OC[C@@]56CCCN5C[C@H](F)C6)nc4c3F)c12` [Compound 165] were less than 500 nM and no more than 500 nM. Take `Cc1cccc2cc(O)cc(-c3nc(C)c4c(N5CC6CCC(C5)N6)nc(OC[C@@]56CCCN5C[C@H](F)C6)nc4c3F)c12` [Compound 93]: on Ba/F3_KRAS^G12D cells, the GI50 is less than 500 nM. Also, the Kd in test [1] is no more than 500 nM.

As for `Cc1nc(-c2cc(O)cc3cccc(Cl)c23)c(F)c2nc(OC[C@@]34CCCN3C[C@H](F)C4)nc(N3CC4CCC(C3)N4)c12` [Compound 89], at Ba/F3_KRAS^G12D cells, the GI50 was less than 500 nM. Also, the Kd in test [1] is no more than 500 nM. For the compound `C#Cc1c(F)ccc2cccc(-c3nc(OCC)c4c(N5CC6CCC(C5)N6)nc(OC[C@@]56CCCN5C[C@H](F)C6)nc4c3F)c12` [Compound 168], the GI50 on Ba/F3_KRAS^G12D cells is less than 500 nM. Same read-out and setting: the figure for `C#Cc1c(F)ccc2cc(N)cc(-c3nc(O)c4c(N5CC6CCC(C5)N6)nc(OC[C@@]56CCCN5C[C@H](F)C6)nc4c3F)c12` [Compound 201] is 500 to 5000 nM; for `C#Cc1c(F)ccc2cc(O)cc(-c3nc(OC(C)C)c4c(N5CC6CCC(C5)N6)nc(OCC5(CN6CCN(C(C)=O)CC6)CC5)nc4c3F)c12` [Compound 231] it is less than 500 nM. In the case of `C#Cc1c(F)ccc2cc(N)cc(-c3nc(OC)c4c(N5CC6CCC(C5)N6)nc(OC[C@@H]5C[C@@H](F)CN5C)nc4c3F)c12` [Compound 208], the GI50 on Ba/F3_KRAS^G12D cells is less than 500 nM. `C#Cc1c(F)ccc2cc(O)cc(-c3nc(OC(C)C)c4c(N5CC6CCC(C5)N6)nc(OCC5(CN6CCN(C)CC6)CC5)nc4c3F)c12` [Compound 230]: the GI50 on Ba/F3_KRAS^G12D cells was less than 500 nM. With `CC#Cc1c(F)ccc2cc(O)cc(-c3nc(OC)c4c(N5CC6CCC(C5)N6)nc(OC[C@@]56CCCN5C[C@H](F)C6)nc4c3F)c12` [Compound 146], the GI50 at Ba/F3_KRAS^G12D cells is less than 500 nM. The same measure, in the same setting: the figure for `C#Cc1c(F)ccc2c(F)c(N)cc(-c3nc(OC(C)C)c4c(N5CC6CCC(C5)N6)nc(OC[C@@]56CCCN5C[C@H](F)C6)nc4c3F)c12` [Compound 202] is less than 500 nM. The same measure, in the same setting: with `C#Cc1c(F)ccc2cc(O)cc(-c3c(F)c4nc(OC[C@@]56CCCN5C[C@H](F)C6)nc(N5CC6CCC(C5)N6)c4c4ncnn34)c12` (single isomer, unassigned) [Compound 156] the figure was less than 500 nM; with `C#Cc1c(F)ccc2cc(O)cc(-c3nc(OC(C)C)c4c(N5CC6CCC(C5)N6)nc(NC)nc4c3F)c12` [Compound 186], 500 to 5000 nM; with `Cc1nc(-c2cc(O)cc3ccc(F)c(OC(F)F)c23)c(F)c2nc(OC[C@@]34CCCN3C[C@H](F)C4)nc(N3CC4CCC(C3)N4)c12` [Compound 144], less than 500 nM. On the same count and under the same terms, with `C#Cc1c(F)ccc2cc(O)cc(-c3nc(OCC(F)F)c4c(N5CC6CCC(C5)N6)nc(OC[C@@]56CCCN5C[C@H](F)C6)nc4c3F)c12` [Compound 180] the figure was less than 500 nM; with `C#Cc1c(F)ccc2cc(O)cc(-c3nc(OC(C)C)c4c(N5CC6CCC(C5)N6C)nc(OC[C@@]56CCCN5C[C@H](F)C6)nc4c3F)c12` [Compound 203], less than 500 nM.

Take `CCc1c(F)ccc2c(F)c(O)cc(-c3nc(C)c4c(N5CC6CCC(C5)N6)nc(OC[C@@]56CCCN5C[C@H](F)C6)nc4c3F)c12` [Compound 151]: on Ba/F3_KRAS^G12D cells, the GI50 was greater than 5000 nM. On to `CCOc1nc(-c2cc(N)cc(F)c2C(F)(F)F)c(F)c2nc(OC[C@@]34CCCN3C[C@H](F)C4)nc(N3CC4CCC(C3)N4)c12` [Compound 213], for which the GI50 at Ba/F3_KRAS^G12D cells is less than 500 nM. Same read-out and setting: the figure for `CCc1c(F)ccc2cc(N)cc(-c3nc(OC)c4c(N5CC6CCC(C5)N6)nc(OC[C@@]56CCCN5C[C@H](F)C6)nc4c3F)c12` [Compound 164] is less than 500 nM; for `CCc1cccc2cc(N)cc(-c3nc(OC)c4c(N5CC6CCC(C5)N6)nc(OC[C@@]56CCCN5C[C@H](F)C6)nc4c3F)c12` [Compound 157] it is less than 500 nM.

With `CCc1c(F)ccc2cccc(-c3nc(OC)c4c(N5CC6CCC(C5)N6)nc(OC[C@]56CCCN5[C@@H](COC(=O)N(C)C)CC6)nc4c3F)c12` [Compound 217], at Ba/F3_KRAS^G12D cells, the GI50 is less than 500 nM.

Take `C#Cc1c(F)ccc2c(F)c(O)cc(-c3nc(C)c4c(N5CC6CCC(C5)N6)nc(OC[C@@]56CCCN5C[C@H](F)C6)nc4c3F)c12` [Compound 143]: the GI50 at Ba/F3_KRAS^G12D cells was less than 500 nM.
